Results published in patent US10562912B2 (C&C Research Laboratories, priority 2013, dated 2020).

Legend:
Type in all cases: cell-based
AGS = assay: Cell growth inhibition assay, stomach cancer cell line AGS; conditions: Homo sapiens; AGS stomach cancer cell line, 3,000 cells/well
Procedure: The inhibitory effects of the compounds of the present invention against the growth of cancer cells were evaluated as shown below. The cancer cell lines including stomach cancer cell line (AGS), breast cancer cell lines (MDA-MB-231, MDA-MB-468, and BT-549), prostate cancer cell lines (LNCaP and DU-145), colon cancer cell line (HCT116), ovarian cancer cell line (SW626), liver cancer cell line (Hep3B), kidney cancer cell line (ACHN), lung cancer cell line (NCI-H23) and blood cancer cell lines (HEL92.1.7 and U266) were cultured under the protocol provided by each supplier. A medium supplemented with 10 ng/mL of IL-6 was used for LNCaP, a prostate cancer cell line, when treated with a drug. Each type of cells to be used in experiments were sub-cultured in a 96-well plate by counting the exact number of cells using Tali™ Image-based Cytometer (Life Technologies). In a 96-well plate, AGS, HCT116, and DU-145 were employed with 3,000 cells/well; NCI-H23, SW626, Hep3B, ACHN, BT-549, MDA-MB-231, HEL92.1.7, and U266 were employed with 5,000 cells/well; and LNCaP and MDA-MB-468 were employed with 10,000 cells/well. The cells were treated with the compounds listed in Examples which were diluted in various concentrations. Upon completion of the compounds treatment, AGS, HCT116, SW626, DU145, NCI-H23, Hep3B, ACHN, BT-549, LNCaP, HEL92.1.7, and U266 cells were cultured at 37° C. under 5% CO2 for from 72 to 96 hours, and MDA-MB-231 and MDA-MB-468 cells were cultured at 37° C. in air for from 72 to 96 hours. Subsequently, the cells were observed under microscope and drug precipitation and particular findings were investigated and recorded. And then, the 96-well plate was placed at room temperature for 30 minutes, added with 20 μL/well of CellTiter-Glo solution (Cat No. G7573, Promega) and shaken for 10 minutes, followed by being subjected to the measurement using PHERAstar™ microplate reader (BMG LABTECH) according to the supplier's general luminometer protocol. Wells where only culture liquid added without cell plating were used as a negative control, whereas wells where culture liquid containing 0.1% DMSO instead of the compounds listed in Examples were used as a positive control.

LNCaP = assay: Cell growth inhibition assay, prostate cancer cell line LNCaP (medium with 10 ng/mL IL-6); conditions: Homo sapiens, medium supplemented with 10 ng/mL of IL-6, 10,000 cells/well
STAT3 = target: T1, STAT3 (Homo sapiens, UniProt P40763); assay: STAT3 reporter gene assay (luciferase), LNCaP stable cell line (pSTAT3-TA-luc), IL-6 stimulation
T1 construct: plasmid pSTAT3-TA-luc), which contains a stably operating STAT3 promoter; endogenous in cells
T1 sequence (P40763 whole entry): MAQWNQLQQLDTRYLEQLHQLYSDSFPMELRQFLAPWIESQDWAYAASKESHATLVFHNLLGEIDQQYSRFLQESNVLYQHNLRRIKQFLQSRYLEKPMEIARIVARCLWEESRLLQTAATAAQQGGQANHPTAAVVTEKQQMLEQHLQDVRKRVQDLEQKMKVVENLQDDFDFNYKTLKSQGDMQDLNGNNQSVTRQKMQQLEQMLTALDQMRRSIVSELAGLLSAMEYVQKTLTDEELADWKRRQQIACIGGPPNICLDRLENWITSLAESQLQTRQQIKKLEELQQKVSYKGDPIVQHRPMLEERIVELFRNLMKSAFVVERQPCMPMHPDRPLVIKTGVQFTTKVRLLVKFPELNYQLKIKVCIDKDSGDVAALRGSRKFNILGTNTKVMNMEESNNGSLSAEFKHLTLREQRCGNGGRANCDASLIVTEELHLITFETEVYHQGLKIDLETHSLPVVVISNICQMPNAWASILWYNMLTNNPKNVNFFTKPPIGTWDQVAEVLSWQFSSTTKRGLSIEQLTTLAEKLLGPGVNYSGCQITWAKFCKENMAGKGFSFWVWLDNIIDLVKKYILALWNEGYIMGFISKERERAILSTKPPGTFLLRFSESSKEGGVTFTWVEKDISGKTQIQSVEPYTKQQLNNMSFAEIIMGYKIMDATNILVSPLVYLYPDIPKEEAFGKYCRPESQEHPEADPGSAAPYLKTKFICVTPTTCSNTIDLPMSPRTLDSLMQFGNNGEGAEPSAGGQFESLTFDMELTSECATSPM
Method in brief: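 Cytotoxicity was run on a duplicate plate with CellTiter-Glo, while the other plate gave luciferase read-outs from lysed LNCaP pSTAT3-TA-luc reporter cells. Cells were treated with graded compound concentrations plus IL-6 (10 ng/mL final) for 24–48 h in 3% DCC-FBS medium. Unstimulated and stimulated wells served as negative and positive controls.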

Compound | IC50 (AGS) [µM] | IC50 (LNCaP) [µM] | IC50 (STAT3) [µM]
CC(C)(C)OC(=O)n1c(C(=O)Nc2cccc(-c3ccccc3C(F)(F)F)c2)cc2ccc([N+](=O)[O-])cc21 [Example 263, tert-butyl 6-nitro-2-((2′-(trifluoromethyl)-[1,1′-biphenyl]-3-yl)carbamoyl)-1H-indole-1-carboxylate] | > 50 | 8 | > 10
CNS(=O)(=O)Nc1ccc2cc(C(=O)Nc3cccc(-c4ccc(F)cc4F)c3)[nH]c2c1 [Example 257, N-(2′,4′-difluoro-[1,1′-biphenyl]-3-yl)-6-((N-methylsulfamoyl)amino)-1H-indole-2-carboxamide] | 11 | 2.8 | 3.5
CS(=O)(=O)Nc1ccc2cc(C(=O)Nc3cccc(-c4ccc([N+](=O)[O-])cc4C(F)(F)F)c3)[nH]c2c1 [Example 285, 6-(methylsulfonamido)-N-(4′-nitro-2′-(trifluoromethyl)-[1,1′-biphenyl]-3-yl)-1H-indole-2-carboxamide] | 13.6 | 3.3 | 2.5
COC(=O)c1cc(-c2cccc(NC(=O)c3cc4ccc([N+](=O)[O-])cc4[nH]3)c2)c(C(F)(F)F)cc1OC [Example 288, methyl 4-methoxy-3′-(6-nitro-1H-indole-2-carboxamido)-6-(trifluoromethyl)-[1,1′-biphenyl]-3-carboxylate] | > 50 | > 10 | > 10
CS(=O)(=O)Nc1ccc2cc(C(=O)Nc3cccc(-c4ccc(F)cc4C(F)(F)F)c3)[nH]c2c1 [Example 277, N-(4′-fluoro-2′-(trifluoromethyl)-[1,1′-biphenyl]-3-yl)-6-(methylsulfonamido)-1H-indole-2-carboxamide] | 2.1 | 1.8 | 0.38
O=C(Nc1cccc(-c2ccc(F)cc2F)c1)c1cc2ccc(NS(=O)(=O)CC(F)(F)F)cc2[nH]1 [Example 273, N-(2′,4′-difluoro-[1,1′-biphenyl]-3-yl)-6-(2,2,2-trifluoroethylsulfonamido)-1H-indole-2-carboxamide] | 10 | 4.1 | 2.2
CS(=O)(=O)Nc1ccc2[nH]c(C(=O)Nc3cccc(-c4ccc(F)cc4F)c3)cc2c1 [Example 272, N-(2′,4′-difluoro-[1,1′-biphenyl]-3-yl)-5-(methylsulfonamido)-1H-indole-2-carboxamide] | 18.8 | 2.6 | 0.5
O=C(Nc1cccc(-c2cccnc2C(F)(F)F)c1)c1cc2ccc([N+](=O)[O-])cc2[nH]1 [Example 292, 6-nitro-N-(3-(2-(trifluoromethyl)pyridin-3-yl)phenyl)-1H-indole-2-carboxamide] | 43.7 | > 10 | > 10
Cc1c(C(=O)Nc2cccc(-c3ccccc3C(F)(F)F)c2)n(CCN2CCOCC2)c2ccc([N+](=O)[O-])cc12 [Example 251, 3-methyl-1-(2-morpholinoethyl)-5-nitro-N-(2′-(trifluoromethyl)-[1,1′-biphenyl]-3-yl)-1H-indole-2-carboxamide] | 26.7 | > 10 | > 10
Cn1c(C(=O)Nc2cccc(-c3ccc(F)cc3F)c2)cc2ccc([N+](=O)[O-])cc21 [Example 247, N-(2′,4′-difluoro-[1,1′-biphenyl]-3-yl)-1-methyl-6-nitro-1H-indole-2-carboxamide] | > 50 | 3.7 | > 10
CS(=O)(=O)Nc1ccc2c(C(=O)Nc3cccc(-c4ccccc4C(F)(F)F)c3)c[nH]c2c1 [Example 266, 6-(methylsulfonamido)-N-(2′-(trifluoromethyl)-[1,1′-biphenyl]-3-yl)-1H-indole-3-carboxamide] | 8.5 | > 10 | 6.8
Cn1c(C(=O)Nc2cccc(-c3ccccc3C(F)(F)F)c2)cc2ccc([N+](=O)[O-])cc21 [Example 249, 1-methyl-6-nitro-N-(2′-(trifluoromethyl)-[1,1′-biphenyl]-3-yl)-1H-indole-2-carboxamide] | 8.4 | > 10 | > 10
NS(=O)(=O)Nc1ccc2cc(C(=O)Nc3cccc(-c4ccccc4C(F)(F)F)c3)[nH]c2c1 [Example 265, 6-(sulfamoylamino)-N-(2′-(trifluoromethyl)-[1,1′-biphenyl]-3-yl)-1H-indole-2-carboxamide] | 11.4 | > 10 | 4.2
O=C(Nc1cccc(-c2ccc(F)cc2C(F)(F)F)c1)C1Cc2ccc([N+](=O)[O-])cc2N1 (stereo not drawn) [Example 229, N-(4′-fluoro-2′-(trifluoromethyl)-[1,1′-biphenyl]-3-yl)-6-nitroindoline-2-carboxamide] | 16.1 | 5.4 | 1.4
Cn1c(C(=O)Nc2cccc(-c3ccc(F)cc3F)c2)cc2ccc(NS(C)(=O)=O)cc21 [Example 248, N-(2′,4′-difluoro-[1,1′-biphenyl]-3-yl)-1-methyl-6-(methylsulfonamido)-1H-indole-2-carboxamide] | 15.7 | 9.6 | 6.1
CCOC(=O)COc1ccc2cc(C(=O)Nc3cccc(-c4ccc(F)cc4F)c3)[nH]c2c1 [Example 255, ethyl 2-((2-((2′,4′-difluoro-[1,1′-biphenyl]-3-yl)carbamoyl)-1H-indol-6-yl)oxy)acetate] | 18.1 | > 10 | > 10

Other lines, results leading:

IC50 (AGS) [µM] | IC50 (LNCaP) [µM] | IC50 (STAT3) [µM] | Compound
30.1 | > 10 | > 10 | CS(=O)(=O)Nc1ccc2cc(C(=O)Nc3cccc(-c4cc(C(N)=O)ccc4C(F)(F)F)c3)[nH]c2c1 [Example 379, N-(5′-carbamoyl-2′-(trifluoromethyl)-[1,1′-biphenyl]-3-yl)-6-(methylsulfonamido)-1H-indole-2-carboxamide]
24.2 | > 10 | 2.4 | COc1cccc(S(=O)(=O)c2cccc(NC(=O)c3cc4ccc(NS(C)(=O)=O)cc4[nH]3)c2)n1 [Example 408, N-(3-((6-methoxypyridin-2-yl)sulfonyl)phenyl)-6-(methylsulfonamido)-1H-indole-2-carboxamide]
22.1 | > 10 | 6.3 | CS(=O)(=O)Nc1ccc2cc(C(=O)Nc3cccc(S(=O)(=O)c4cccc(C#N)c4)c3)[nH]c2c1 [Example 402, N-(3-((3-cyanophenyl)sulfonyl)phenyl)-6-(methylsulfonamido)-1H-indole-2-carboxamide]
> 50 | > 10 | > 10 | COc1ccc(-c2cccc(NC(=O)c3cc4ccc(NS(C)(=O)=O)cc4n3C(=O)OC(C)(C)C)c2)c(F)c1 [Example 296, tert-butyl 2-((2′-fluoro-4′-methoxy-[1,1′-biphenyl]-3-yl)carbamoyl)-6-(methylsulfonamido)-1H-indole-1-carboxylate]
43.1 | > 10 | 3.1 | COC(=O)c1ccc(Cl)c(-c2cccc(NC(=O)c3cc4ccc(NS(C)(=O)=O)cc4[nH]3)c2)c1 [Example 299, methyl 6-chloro-3′-(6-(methylsulfonamido)-1H-indole-2-carboxamido)-[1,1′-biphenyl]-3-carboxylate]
14.4 | 9.6 | 1.7 | CS(=O)(=O)Nc1ccc2cc(C(=O)Nc3cccc(S(=O)(=O)c4cccc(Br)c4)c3)[nH]c2c1 [Example 414, N-(3-((3-bromophenyl)sulfonyl)phenyl)-6-(methylsulfonamido)-1H-indole-2-carboxamide]
> 50 | > 10 | > 10 | CS(=O)(=O)Nc1ccc2cc(C(=O)Nc3cccc(S(=O)(=O)c4ccc5c(=O)ccoc5c4)c3)[nH]c2c1 [Example 413, 6-(methylsulfonamido)-N-(3-((4-oxo-4H-chromen-7-yl)sulfonyl)phenyl)-1H-indole-2-carboxamide]
39.9 | > 10 | > 10 | CS(=O)(=O)Nc1ccc2cc(C(=O)Nc3cccc(-c4cc(C(N)=O)c(O)cc4C(F)(F)F)c3)[nH]c2c1 [Example 378, N-(5′-carbamoyl-4′-hydroxy-2′-(trifluoromethyl)-[1,1′-biphenyl]-3-yl)-6-(methylsulfonamido)-1H-indole-2-carboxamide]
